The values below come from patent US20260325533A1, “CDK INHIBITOR COMPOUNDS” (ALEKSIA THERAPEUTICS, INC., priority 2023, published 2026).

Holding throughout (type): biochemical
One experiment addresses CDK1/CCNB1 (Homo sapiens, UniProt P06493). In words: CDK1 homogeneous time-resolved fluorescence (HTRF) kinase assay. The following applies: CDK1/CCNB. The method, boiled down:
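CDK1/CCNB1 0.5 nM + cpd, 20 min 23 °C; add 1 mM ATP, 50 nM ULight-4E-BP1 peptide, 60 min 23 °C; stop 10 mM EDTA; 2 nM Eu-Ab, 60 min; HTRF 665 nm. 11-pt half-log, top 10 μM typical; IC50.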

For another experiment, the target named is CDK2/CCNE1 (Homo sapiens, UniProt P24941). The experiment in a line: CDK2 homogeneous time-resolved fluorescence (HTRF) kinase assay. The settings on record: CDK2/CCNE. In outline: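 An HTRF format measures CDK2/CCNE1 (3 nM) phosphorylating a 4E-BP1 Thr37/46 peptide at high (1 mM) ATP. Reactions run one hour at 23 °C, then EDTA-quenched and probed with Eu-labelled phospho-specific antibody.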
(Time-resolved FRET reads energy transfer from a long-lived donor to a nearby acceptor.)

A further experiment addresses CDK4/CCND3 (Homo sapiens, UniProt P11802). In words: CDK4 homogeneous time-resolved fluorescence (HTRF) kinase assay. The settings on record: CDK4/CCND. On the procedure: (§1) A CDK homogeneous time-resolved fluorescence (HTRF) assay was used to assess the potency of the compounds described herein.
(§2) To an untreated 384-well microtiter plate (ProxiPlate) was added 100 nL 100×test compound in DMSO and 5 μL 2×CDK enzyme in assay buffer (50 mM HEPES, 1 mM EGTA, 10 mM MgCl2, 0.01% Tween 20, 2 mM DTT). The plate was centrifuged at 800 RPM for 1 min then incubated for 20 min at 23 °C. 2.5 μL per well of 4×ATP and 2.5 μL 4×ULight™-eIF4E-binding protein 1 (Thr37/46) Peptide substrate were added to all wells. After addition, the plates were centrifuged at 800 RPM for 1 min. The plates were incubated at 23 °C for 60 min. 5 μL per well 4×EDTA solution were added to each well to stop the reaction. 5 μL 4×LANCE Ultra Europium-anti-phospho-eIF4E-binding protein 1 (Thr37/46) antibody were added to each well and the plate was centrifuged for 1 min at 800 RPM. The plate was incubated for 60 min at 23 °C. Fluorescence was read at 340 nm excitation and 665 nm emission on an EnVision 2105 fluorescence reader. The final concentrations of reagents in the activity assay were 1.5 nM CDK4/CCND3, 1 mM ATP, 50 nM ULight™-eIF4E-binding protein 1 (Thr37/46) Peptide substrate, 1% DMSO, 10 mM EDTA, and 2 nM LANCE Ultra Europium-anti-phospho-eIF4E-binding protein 1 (Thr37/46).
(§3) Dose-response titrations were conducted by using an 11-point, half-logarithmic serial dilution scheme typically starting at 10 μM. Signals were reported as fluorescence units at 665 nm or the ratio of fluorescence units at 665 nm/fluorescence units at 615 nm. Signals are referred to below as “Lance signals”.
(§4) Using this assay, the IC50 values of example compounds were determined. Table 3 illustrates the IC50 for various Example compounds of Formula IA. Table 4 illustrates the IC50 for various other Example compounds of Formula I. ND=not determined.

Another experiment addresses CDK6/CCND1 (Homo sapiens, UniProt Q00534). In words: CDK6 homogeneous time-resolved fluorescence (HTRF) kinase assay. The settings on record: CDK6/CCND. On the procedure:
as §1
as §2, with “1” for “1.5”, “CDK6/CCND1,” for “CDK4/CCND3,”
as §3, §4

Where [1] appears, read: >250 nM marked x, read-out: CDK1/CCNB IC50 >250 nM.
Setting [2] is: <25 nM, read-out: CDK2/CCNE IC50 <25 nM.
[3] abbreviates: 25-250 nM marked x, read-out: CDK4/CCND IC50 25-250 nM.
Setting [4] is: 25-250 nM marked x, read-out: CDK6/CCND IC50 25-250 nM.
[5] abbreviates: 25-250 nM marked x, read-out: CDK1/CCNB IC50 25-250 nM.
Where [6] appears, read: <25 nM, read-out: CDK4/CCND IC50 <25 nM.
Where [7] appears, read: <25 nM, read-out: CDK6/CCND IC50 <25 nM.
Where [8] appears, read: 25-250 nM marked x, read-out: CDK2/CCNE IC50 25-250 nM.

Like-named read-outs stand apart in the source and are kept apart here.

CDK4/CCND3, sequence (P11802 whole entry): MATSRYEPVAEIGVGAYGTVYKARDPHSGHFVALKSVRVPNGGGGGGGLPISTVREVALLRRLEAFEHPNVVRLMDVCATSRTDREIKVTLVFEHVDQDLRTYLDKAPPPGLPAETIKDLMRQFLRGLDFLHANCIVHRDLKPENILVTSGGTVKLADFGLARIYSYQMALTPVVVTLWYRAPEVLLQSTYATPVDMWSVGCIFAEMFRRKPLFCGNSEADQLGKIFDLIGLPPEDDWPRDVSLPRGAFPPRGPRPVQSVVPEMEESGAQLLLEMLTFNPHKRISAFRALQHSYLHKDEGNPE
CDK4/CCND3, sequence (P30281 whole entry partner): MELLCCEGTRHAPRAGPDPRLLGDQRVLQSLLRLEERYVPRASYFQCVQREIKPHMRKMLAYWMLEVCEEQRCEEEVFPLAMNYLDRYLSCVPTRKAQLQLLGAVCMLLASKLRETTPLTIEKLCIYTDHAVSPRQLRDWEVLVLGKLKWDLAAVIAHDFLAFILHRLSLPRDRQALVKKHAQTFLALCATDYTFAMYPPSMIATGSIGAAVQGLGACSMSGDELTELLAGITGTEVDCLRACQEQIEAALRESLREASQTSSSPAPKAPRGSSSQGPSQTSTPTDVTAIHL
CDK6/CCND1, sequence (Q00534 whole entry): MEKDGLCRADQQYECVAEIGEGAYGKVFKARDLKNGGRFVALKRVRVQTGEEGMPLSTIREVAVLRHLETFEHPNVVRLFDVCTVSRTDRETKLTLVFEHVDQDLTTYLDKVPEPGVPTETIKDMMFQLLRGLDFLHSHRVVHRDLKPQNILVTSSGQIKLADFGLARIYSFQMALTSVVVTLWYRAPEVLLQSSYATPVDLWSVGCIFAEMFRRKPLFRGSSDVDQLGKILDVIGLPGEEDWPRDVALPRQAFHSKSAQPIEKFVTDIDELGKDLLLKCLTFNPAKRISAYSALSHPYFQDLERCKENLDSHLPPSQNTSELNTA
CDK6/CCND1, sequence (P24385 whole entry partner): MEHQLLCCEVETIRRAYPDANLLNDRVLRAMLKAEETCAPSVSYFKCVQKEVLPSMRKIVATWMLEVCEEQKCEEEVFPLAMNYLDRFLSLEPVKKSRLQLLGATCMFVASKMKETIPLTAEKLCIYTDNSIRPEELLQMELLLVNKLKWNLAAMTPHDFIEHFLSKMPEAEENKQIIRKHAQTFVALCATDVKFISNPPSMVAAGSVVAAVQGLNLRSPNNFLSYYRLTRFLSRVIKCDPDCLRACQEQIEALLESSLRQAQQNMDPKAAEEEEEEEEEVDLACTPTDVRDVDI
CDK1/CCNB1, sequence (P06493 whole entry): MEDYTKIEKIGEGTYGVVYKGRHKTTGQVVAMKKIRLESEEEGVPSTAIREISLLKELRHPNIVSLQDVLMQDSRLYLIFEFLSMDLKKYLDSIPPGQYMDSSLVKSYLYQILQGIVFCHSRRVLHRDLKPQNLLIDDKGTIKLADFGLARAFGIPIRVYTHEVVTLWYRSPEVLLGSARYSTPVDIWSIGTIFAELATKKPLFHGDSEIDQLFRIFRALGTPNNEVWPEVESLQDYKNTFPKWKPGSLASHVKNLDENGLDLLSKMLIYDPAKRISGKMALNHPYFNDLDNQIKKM
CDK1/CCNB1, sequence (P14635 whole entry partner): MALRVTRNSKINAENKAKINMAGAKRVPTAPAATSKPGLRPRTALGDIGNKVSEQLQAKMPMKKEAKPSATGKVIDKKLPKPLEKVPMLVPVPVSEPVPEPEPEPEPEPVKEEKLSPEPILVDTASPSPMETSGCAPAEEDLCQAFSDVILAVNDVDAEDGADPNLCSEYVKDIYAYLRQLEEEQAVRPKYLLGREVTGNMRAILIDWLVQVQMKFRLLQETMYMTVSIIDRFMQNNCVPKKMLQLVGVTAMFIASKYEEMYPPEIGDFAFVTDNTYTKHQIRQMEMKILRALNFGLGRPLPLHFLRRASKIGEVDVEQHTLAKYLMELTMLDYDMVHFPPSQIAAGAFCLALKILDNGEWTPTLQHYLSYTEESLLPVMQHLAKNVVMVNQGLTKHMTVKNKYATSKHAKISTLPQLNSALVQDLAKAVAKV

With `CS(=O)(=O)N1CCC(Nc2cc3c(N4CCC(O)C4)nccc3cn2)CC1` (racemic) [Ex 26, 1-(7-((1-(methylsulfonyl)piperidin-4-yl)amino)-2,6-naphthyridin-1-yl)pyrrolidin-3-ol], the IC50 is more than 250 nM at CDK1/CCNB1 (setting [1]), less than 25 nM at CDK2/CCNE1 (setting [2]), 25 to 250 nM on CDK4/CCND3 (setting [3]) and 25 to 250 nM on CDK6/CCND1 (setting [4]).
Turning to `CC1CCCCN1c1nccc2cnc(NC3CCN(S(C)(=O)=O)CC3)cc12` (racemic) [Ex 34, 5-(2-methylpiperidin-1-yl)-N-(1-(methylsulfonyl)piperidin-4-yl)-2,6-naphthyridin-3-amine], the IC50 was 25 to 250 nM on CDK1/CCNB1 (setting [5]), less than 25 nM at CDK2/CCNE1 (setting [2]), less than 25 nM on CDK4/CCND3 (setting [6]) and less than 25 nM at CDK6/CCND1 (setting [7]).
Regarding `CS(=O)(=O)N1CCC(Nc2cc3c(N4CCCC(C#N)C4)nccc3cn2)CC1` (racemic) [Ex 39, 1-(7-((1-(methylsulfonyl)piperidin-4-yl)amino)-2,6-naphthyridin-1-yl)piperidine-3-carbonitrile], the IC50 at CDK1/CCNB1 (setting [5]) is 25 to 250 nM; on CDK2/CCNE1 (setting [2]), less than 25 nM; at CDK4/CCND3 (setting [3]), 25 to 250 nM; at CDK6/CCND1 (setting [7]) it was less than 25 nM.
As for `CS(=O)(=O)N1CCC(Nc2cc3c(N4CCCC(CO)C4)nccc3cn2)CC1` (racemic) [Ex 40, (1-(7-((1-(methylsulfonyl)piperidin-4-yl)amino)-2,6-naphthyridin-1-yl)piperidin-3-yl)methanol], the IC50 at CDK1/CCNB1 (setting [5]) was 25 to 250 nM; on CDK2/CCNE1 (setting [2]), less than 25 nM; on CDK4/CCND3 (setting [3]), 25 to 250 nM; at CDK6/CCND1 (setting [4]), 25 to 250 nM.
With `CS(=O)(=O)N1CCC(Nc2cc3c(N4CCCC(O)C4)nccc3cn2)CC1` (racemic) [Ex 42, 1-(7-((1-(methylsulfonyl)piperidin-4-yl)amino)-2,6-naphthyridin-1-yl)piperidin-3-ol], the IC50 was 25 to 250 nM at CDK1/CCNB1 (setting [5]), less than 25 nM at CDK2/CCNE1 (setting [2]), 25 to 250 nM at CDK4/CCND3 (setting [3]) and 25 to 250 nM at CDK6/CCND1 (setting [4]).
`CS(=O)(=O)N1CCC(Nc2cc3c(N4CCC(C#N)C4)nccc3cn2)CC1` (racemic) [Ex 45, 1-(7-((1-(methylsulfonyl)piperidin-4-yl)amino)-2,6-naphthyridin-1-yl)pyrrolidine-3-carbonitrile]: the IC50 on CDK1/CCNB1 (setting [1]) was more than 250 nM; on CDK2/CCNE1 (setting [2]), less than 25 nM; on CDK4/CCND3 (setting [3]), 25 to 250 nM; on CDK6/CCND1 (setting [4]) it was 25 to 250 nM.
With `CN(C)C1CCCN(c2nccc3cnc(NC4CCN(S(C)(=O)=O)CC4)cc23)CC1` (racemic) [Ex 52, 5-(4-(dimethylamino)azepan-1-yl)-N-(1-(methylsulfonyl)piperidin-4-yl)-2,6-naphthyridin-3-amine], the IC50 at CDK1/CCNB1 (setting [1]) is more than 250 nM; on CDK2/CCNE1 (setting [8]) it was 25 to 250 nM; on CDK4/CCND3 (setting [6]) it was less than 25 nM; on CDK6/CCND1 (setting [7]) it was less than 25 nM.
With `O=C(NC1CCSC1=O)c1ccc(Nc2cc3c(C4=CCCCC4)nccc3cn2)cc1` (racemic) [Ex 114, 4-((5-(cyclohex-1-en-1-yl)-2,6-naphthyridin-3-yl)amino)-N-(2-oxotetrahydrothiophen-3-yl)benzamide], the IC50 on CDK1/CCNB1 (setting [5]) is 25 to 250 nM; on CDK2/CCNE1 (setting [2]), less than 25 nM; at CDK4/CCND3 (setting [6]), less than 25 nM; at CDK6/CCND1 (setting [7]), less than 25 nM.
With `CS(=O)(=O)c1ccc(Nc2cc3c(C4=CCC(O)CC4)nccc3cn2)cc1` (racemic) [Ex 120, 4-(7-((4-(methylsulfonyl)phenyl)amino)-2,6-naphthyridin-1-yl)cyclohex-3-en-1-ol], the IC50 at CDK1/CCNB1 (setting [1]) was more than 250 nM; at CDK2/CCNE1 (setting [2]) it was less than 25 nM; at CDK4/CCND3 (setting [3]) it was 25 to 250 nM; at CDK6/CCND1 (setting [4]), 25 to 250 nM.
Consider `CS(=O)(=O)c1ccc(Nc2cc3c(C4=CCC(C#N)CC4)nccc3cn2)cc1` (racemic) [Ex 121, 4-(7-((4-(methylsulfonyl)phenyl)amino)-2,6-naphthyridin-1-yl)cyclohex-3-ene-1-carbonitrile], for which the IC50 is more than 250 nM on CDK1/CCNB1 (setting [1]), less than 25 nM on CDK2/CCNE1 (setting [2]), 25 to 250 nM on CDK4/CCND3 (setting [3]) and 25 to 250 nM on CDK6/CCND1 (setting [4]).
Turning to `C=CS(=O)(=O)c1ccc(Nc2cc3c(N4CCC(C#N)C4)nccc3cn2)cc1` (racemic) [Ex 122, 1-(7-((4-(vinylsulfonyl)phenyl)amino)-2,6-naphthyridin-1-yl)pyrrolidine-3-carbonitrile], the IC50 at CDK1/CCNB1 (setting [1]) is more than 250 nM; on CDK2/CCNE1 (setting [8]) it was 25 to 250 nM; on CDK4/CCND3 (>250 nM marked x, read-out: CDK4/CCND IC50 >250 nM) it was more than 250 nM; at CDK6/CCND1 (>250 nM marked x, read-out: CDK6/CCND IC50 >250 nM) it was more than 250 nM.
For the compound `CS(=O)(=O)c1ccc(Nc2cc3c(C#CC4CC(O)C4)nccc3cn2)cc1` (racemic) [Ex 147, 3-((7-((4-(methylsulfonyl)phenyl)amino)-2,6-naphthyridin-1-yl)ethynyl)cyclobutan-1-ol], the IC50 was 25 to 250 nM on CDK1/CCNB1 (setting [5]), less than 25 nM on CDK2/CCNE1 (setting [2]), 25 to 250 nM at CDK4/CCND3 (setting [3]) and 25 to 250 nM at CDK6/CCND1 (setting [4]).
Consider `Cc1c(-c2nccc3cnc(Nc4ccc(S(C)(=O)=O)cc4)cc23)ccc2c1cnn2CC1CCNC1` (racemic) [Ex 193, 5-(4-methyl-1-(pyrrolidin-3-ylmethyl)-1H-indazol-5-yl)-N-(4-(methylsulfonyl)phenyl)-2,6-naphthyridin-3-amine], for which the IC50 at CDK1/CCNB1 (setting [1]) is more than 250 nM; on CDK2/CCNE1 (setting [2]) it was less than 25 nM; at CDK4/CCND3 (setting [3]) it was 25 to 250 nM; on CDK6/CCND1 (setting [4]) it was 25 to 250 nM.
Take `CS(=O)(=O)N1CCC(Nc2cc3c(-c4ccc(C#N)nc4)nccc3cn2)CC1` [Ex 61, 5-(7-((1-(methylsulfonyl)piperidin-4-yl)amino)-2,6-naphthyridin-1-yl)picolinonitrile]: the IC50 was more than 250 nM on CDK1/CCNB1 (setting [1]), 25 to 250 nM at CDK4/CCND3 (setting [3]) and 25 to 250 nM at CDK6/CCND1 (setting [4]).
As for `CCC1(CC)C(=O)Nc2cc(C#Cc3nccc4cnc(Nc5ccc(S(=O)(=O)C6CC6)cc5)cc34)ccc21` [Ex 408, 6-((7-((4-(cyclopropylsulfonyl)phenyl)amino)-2,6-naphthyridin-1-yl)ethynyl)-3,3-diethylindolin-2-one], the IC50 was more than 250 nM on CDK1/CCNB1 (x = IC50 >250 nM, read-out: CDK1/CCNB IC50 (>250 nM column)); more than 250 nM on CDK4/CCND3 (x = IC50 >250 nM, read-out: CDK4/CCND IC50 (>250 nM column)); more than 250 nM at CDK6/CCND1 (x = IC50 >250 nM, read-out: CDK6/CCND IC50 (>250 nM column)).
